Assay results: publication PMC4925669, “Phytochemicals Mediate the Expression and Activity of OCTN2 as Activators of the PPARγ/RXRα Pathway” (Frontiers in Pharmacology, 2016)

Target: T1, PPARγ (Homo sapiens, UniProt P37231)
T1 construct: gene PPARG; pcDNA3.1-PPARγ; with RXRα
T1 sequence (P37231 1-505): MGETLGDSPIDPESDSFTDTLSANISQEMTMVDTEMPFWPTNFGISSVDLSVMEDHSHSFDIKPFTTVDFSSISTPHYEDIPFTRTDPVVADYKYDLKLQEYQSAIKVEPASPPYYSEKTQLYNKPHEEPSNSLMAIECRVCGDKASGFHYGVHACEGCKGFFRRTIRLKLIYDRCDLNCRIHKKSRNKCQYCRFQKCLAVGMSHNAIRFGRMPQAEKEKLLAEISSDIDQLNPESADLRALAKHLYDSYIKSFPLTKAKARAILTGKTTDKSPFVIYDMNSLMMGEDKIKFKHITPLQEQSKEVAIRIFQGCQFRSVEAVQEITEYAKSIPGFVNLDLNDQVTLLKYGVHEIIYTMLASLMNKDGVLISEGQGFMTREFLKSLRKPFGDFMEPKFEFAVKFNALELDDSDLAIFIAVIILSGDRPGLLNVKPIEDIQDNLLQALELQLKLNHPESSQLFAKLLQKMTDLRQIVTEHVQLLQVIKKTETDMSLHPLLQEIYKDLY
T1 sequence (P19793 1-462 partner): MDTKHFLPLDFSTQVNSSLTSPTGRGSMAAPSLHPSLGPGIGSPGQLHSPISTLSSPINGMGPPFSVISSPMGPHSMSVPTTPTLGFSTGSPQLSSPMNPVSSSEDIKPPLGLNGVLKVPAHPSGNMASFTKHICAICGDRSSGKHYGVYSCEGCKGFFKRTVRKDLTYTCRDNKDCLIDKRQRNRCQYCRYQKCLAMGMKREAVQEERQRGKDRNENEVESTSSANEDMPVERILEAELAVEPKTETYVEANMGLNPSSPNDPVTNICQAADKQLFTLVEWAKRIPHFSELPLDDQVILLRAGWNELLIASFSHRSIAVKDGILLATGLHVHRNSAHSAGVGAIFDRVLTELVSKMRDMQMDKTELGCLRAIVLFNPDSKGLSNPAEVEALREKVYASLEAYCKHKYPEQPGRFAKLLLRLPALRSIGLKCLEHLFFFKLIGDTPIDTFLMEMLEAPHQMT
Assay: PPRE/OCTN2 dual-luciferase transactivation assay in COS-7 cells transfected with PPARγ/RXRα, blocked by GW9662
Assay type: cell-based

O=c1c(O)c(-c2ccc(O)cc2)oc2cc(O)cc(O)c12 [Kaempferol]
Relative RFU fold change (% of blank): 189.89 ± 5.98 % of blank
